In patent publication US10662189B2, “PDE4 inhibitor” (SHIJIAZHUANG SAGACITY NEW DRUG DEVELOPMENT CO., LTD., priority 2016, dated 2020):

Each compound was assayed against Recombinant human PDE4B (Homo sapiens (Human), UniProt Q07343) (assay: Inhibitory activity against PDE 4B in vitro (fluorescence polarization, Transcreener AMP2/GMP2)). Details: 1 μM cAMP.
Chain of Recombinant human PDE4B (Q07343 305-736 limits assumed): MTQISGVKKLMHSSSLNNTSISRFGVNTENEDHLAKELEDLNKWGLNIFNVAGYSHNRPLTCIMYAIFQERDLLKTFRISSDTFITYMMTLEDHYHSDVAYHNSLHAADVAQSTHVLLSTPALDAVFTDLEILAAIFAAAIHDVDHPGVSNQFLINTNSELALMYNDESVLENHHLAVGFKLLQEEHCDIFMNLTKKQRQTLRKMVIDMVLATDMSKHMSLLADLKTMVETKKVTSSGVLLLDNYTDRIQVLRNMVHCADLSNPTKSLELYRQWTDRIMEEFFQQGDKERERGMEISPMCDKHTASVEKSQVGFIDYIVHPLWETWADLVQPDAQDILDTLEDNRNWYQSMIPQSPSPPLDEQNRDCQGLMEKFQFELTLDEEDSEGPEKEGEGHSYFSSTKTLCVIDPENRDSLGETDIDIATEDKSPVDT
Type: biochemical
Protocol: Inhibitory activity of the compounds against PDE 4B
The enzyme activity was indicated by measuring the AMP/GMP expression and tracing AMP/GMP antibody binding based on fluorescence polarization in the biological assay.
10 mM Tris-HCl (pH 7.5), 5 mM MgCl2, 0.01% Brij 35, 1 mM DTT and 1% DMSO.
Recombinant human PDE4B (Gen accession number: NM_002600; amino acid 305 end) was expressed by baculovirus in Sf9 insect cells using an N-terminal GST tag. MW=78 kDa.
Transcreener® AMP2/GMP2 antibody and AMP2/GMP2 AlexaFluor633 tracer
i) Recombinant human PDE4B and the enzyme substrate (1 μM cAMP) were dissolved in the newly-prepared buffer solution, respectively.
ii) The PDE4B buffer solution defined as above was transferred into the reaction wells.
iii) The compound which was dissolved in 100% DMSO was added to the reaction wells of the PDE4B buffer solution by ultrasonic oscillator (echo 550; nanoliter range) and incubated at room temperature for 10 minutes.
iv) The enzymatic buffer solution was then added to the reaction wells defined as above to initiate the reaction.
v) The reaction was incubated at room temperature for 1 hour.
vi) The reaction was terminated by adding detecting mixture (Transcreener® AMP2/GMP2 antibody and AMP2/GMP2 AlexaFluor633 tracer) and incubated for 90 minutes with slowly mixing. The measurement range of fluorescence polarization is Ex/Em=620/688.
The fluorescence polarization signal was converted into nM according to the AMP/GMP standard curve and the percent enzyme activity relative to DMSO calculated by Excel. GraphPad Prism was used to plot the curves (Drawing Medicine Icon).
With `COc1ccc(C(CS(C)(=O)=O)n2c(=O)[nH]c3c(-c4ccccc4F)ccnc32)cc1OC` (single isomer, unassigned) [WX072] the IC50 was 24.6 nM.
`CCOc1cc([C@@H](CS(C)(=O)=O)n2c(=O)[nH]c3cc(Cl)cnc32)ccc1OC` [WX001] showed an IC50 of 9.48 nM.
With `CCOc1cc([C@@H](CS(C)(=O)=O)n2c(=O)[nH]c3cc(C(F)(F)F)cnc32)ccc1OC` [WX002] the IC50 was 5.66 nM.
`CCOc1cc([C@@H](CS(C)(=O)=O)n2c(=O)[nH]c3cc(F)cnc32)ccc1OC` [WX003] gave an IC50 of 10.6 nM.
For `CCOc1cc([C@@H](CS(C)(=O)=O)n2c(=O)[nH]c3cc(Br)cnc32)ccc1OC` [WX004], the IC50 was 7.09 nM.
Compound `CCOc1cc([C@@H](CS(C)(=O)=O)n2c(=O)[nH]c3cc(C4CC4)cnc32)ccc1OC` [WX005] has an IC50 of 5.03 nM.
With `CCOc1cc([C@@H](CS(C)(=O)=O)n2c(=O)[nH]c3cc(Cc4ccccc4F)cnc32)ccc1OC` [WX006] the IC50 was 1.8 nM.
`CCOc1cc([C@@H](CS(C)(=O)=O)n2c(=O)[nH]c3cc(C=C(C)C)cnc32)ccc1OC` [WX007] showed an IC50 of 2.81 nM.
`CCOc1cc([C@@H](CS(C)(=O)=O)n2c(=O)[nH]c3cc(CC(C)C)cnc32)ccc1OC` [WX008] gave an IC50 of 4.89 nM.
In the case of `CCOc1cc([C@@H](CS(C)(=O)=O)n2c(=O)[nH]c3cc(-c4ccccc4F)cnc32)ccc1OC` [WX009], the IC50 is reported as 0.86 nM.
For `CCOc1cc([C@@H](CS(C)(=O)=O)n2c(=O)[nH]c3cc(-c4ccccc4)cnc32)ccc1OC` [WX010], the IC50 was 2.6 nM.
For `CCOc1cc([C@@H](CS(C)(=O)=O)n2c(=O)[nH]c3cc(-c4cccc(F)c4)cnc32)ccc1OC` [WX011], the IC50 was 3.4 nM.
Compound `CCOc1cc([C@@H](CS(C)(=O)=O)n2c(=O)[nH]c3cc(-c4ccc(F)cc4)cnc32)ccc1OC` [WX012] has an IC50 of 3.9 nM.
Compound `CCOc1cc([C@@H](CS(C)(=O)=O)n2c(=O)[nH]c3cc(-c4cccc(F)c4F)cnc32)ccc1OC` [WX013] has an IC50 of 0.994 nM.
Work on `CCOc1cc([C@@H](CS(C)(=O)=O)n2c(=O)[nH]c3cc(-c4ccccc4C)cnc32)ccc1OC` [WX014] yielded an IC50 of less than 0.5 nM.
In the case of `CCOc1cc([C@@H](CS(C)(=O)=O)n2c(=O)[nH]c3cc(-c4ccccc4C(C)C)cnc32)ccc1OC` [WX015], the IC50 is reported as 1.04 nM.
`CCOc1cc([C@@H](CS(C)(=O)=O)n2c(=O)[nH]c3cc(-c4ccccc4Cl)cnc32)ccc1OC` [WX016] gave an IC50 of less than 0.5 nM.
For `CCOc1cc([C@@H](CS(C)(=O)=O)n2c(=O)[nH]c3cc(-c4ccccc4OC)cnc32)ccc1OC` [WX017], the IC50 was 0.641 nM.
Work on `CCOc1cc([C@@H](CS(C)(=O)=O)n2c(=O)[nH]c3cc(-c4ccccc4C(F)(F)F)cnc32)ccc1OC` [WX018] yielded an IC50 of 0.391 nM.
`CCOc1cc([C@@H](CS(C)(=O)=O)n2c(=O)[nH]c3cc(-c4cn[nH]c4)cnc32)ccc1OC` [WX019] showed an IC50 of 3.38 nM.
Compound `CCOc1cc([C@@H](CS(C)(=O)=O)n2c(=O)[nH]c3cc(C)cnc32)ccc1OC` [WX020] has an IC50 of 65.8 nM.
Compound `CCOc1cc([C@@H](CS(C)(=O)=O)n2c(=O)[nH]c3cc(-n4ccccc4=O)cnc32)ccc1OC` [WX021] has an IC50 of 26.1 nM.
Compound `CCOc1cc([C@@H](CS(C)(=O)=O)n2c(=O)[nH]c3cc(C#N)cnc32)ccc1OC` [WX022] has an IC50 of 26.5 nM.
`CCOc1cc([C@@H](CS(C)(=O)=O)n2c(=O)[nH]c3cc(CO)cnc32)ccc1OC` [WX023] gave an IC50 of 68.1 nM.
With `CCOc1cc([C@@H](CS(C)(=O)=O)n2c(=O)n(Cc3ccccc3F)c3cc(Cc4ccccc4F)cnc32)ccc1OC` [WX024] the IC50 was 2.7 nM.
`CCOc1cc([C@@H](CS(C)(=O)=O)n2c(=O)[nH]c3cc(-c4cccnc4)cnc32)ccc1OC` [WX025] showed an IC50 of 9.53 nM.
In the case of `CCOc1cc([C@@H](CS(C)(=O)=O)n2c(=O)[nH]c3cc(-c4ncccn4)cnc32)ccc1OC` [WX026], the IC50 is reported as 4.51 nM.
`CCOc1cc([C@@H](CS(C)(=O)=O)n2c(=O)[nH]c3cc(-c4cncnc4)cnc32)ccc1OC` [WX027] showed an IC50 of 19.1 nM.
`CCOc1cc([C@@H](CS(C)(=O)=O)n2c(=O)[nH]c3cc(-c4nccc(C)n4)cnc32)ccc1OC` [WX028] was tested, and the IC50 was 9.7 nM.
With `CCOc1cc([C@@H](CS(C)(=O)=O)n2c(=O)[nH]c3cc(-c4cncnc4C)cnc32)ccc1OC` [WX029] the IC50 was 14.8 nM.
With `CCOc1cc([C@@H](CS(C)(=O)=O)n2c(=O)[nH]c3cc(-c4ccccc4CC)cnc32)ccc1OC` [WX030] the IC50 was 0.515 nM.
Work on `CCOc1cc([C@@H](CS(C)(=O)=O)n2c(=O)[nH]c3cc(-c4ccccc4OCC)cnc32)ccc1OC` [WX031] yielded an IC50 of 0.861 nM.
Work on `CCOc1cc([C@@H](CS(C)(=O)=O)n2c(=O)[nH]c3cc(-c4ccccc4C#N)cnc32)ccc1OC` [WX032] yielded an IC50 of 0.234 nM.
Compound `CCOc1cc([C@@H](CS(C)(=O)=O)n2c(=O)[nH]c3cc(-c4c(F)cccc4F)cnc32)ccc1OC` [WX033] has an IC50 of 0.671 nM.
Work on `CCOc1cc([C@@H](CS(C)(=O)=O)n2c(=O)[nH]c3cc(-c4c(C)ncnc4C)cnc32)ccc1OC` [WX034] yielded an IC50 of 5.18 nM.
`CCOc1cc([C@@H](CS(C)(=O)=O)n2c(=O)[nH]c3cc(-c4ccncc4)cnc32)ccc1OC` [WX035] was tested, and the IC50 was 15.5 nM.
In the case of `CCOc1cc([C@@H](CS(C)(=O)=O)n2c(=O)[nH]c3cc(-c4cscn4)cnc32)ccc1OC` [WX036], the IC50 is reported as 6.27 nM.
For `CCOc1cc([C@@H](CS(C)(=O)=O)n2c(=O)[nH]c3cc(-c4ncccc4F)cnc32)ccc1OC` [WX037], the IC50 was 10.2 nM.
`CCOc1cc([C@@H](CS(C)(=O)=O)n2c(=O)[nH]c3cc(-c4nccnc4C)cnc32)ccc1OC` [WX038] showed an IC50 of 14.5 nM.
`CCOc1cc([C@@H](CS(C)(=O)=O)n2c(=O)[nH]c3cc(-c4nnccc4C)cnc32)ccc1OC` [WX039] showed an IC50 of 21.7 nM.
`CCOc1cc([C@@H](CS(C)(=O)=O)n2c(=O)[nH]c3cc(C4=CCN(C(=O)OC(C)(C)C)CC4)cnc32)ccc1OC` [WX040] gave an IC50 of 10.4 nM.
For `CCOc1cc([C@@H](CS(C)(=O)=O)n2c(=O)n(C)c3cc(OC)cnc32)ccc1OC` [WX041], the IC50 was 16.4 nM.
`CCOc1cc([C@@H](CS(C)(=O)=O)n2c(=O)[nH]c3cc(Oc4ncccn4)cnc32)ccc1OC` [WX042] showed an IC50 of 5.42 nM.
`CCOc1cc([C@@H](CS(C)(=O)=O)n2c(=O)[nH]c3cc(Oc4ccccc4C(F)(F)F)cnc32)ccc1OC` [WX043] gave an IC50 of 2.53 nM.
Compound `CCOc1cc([C@@H](CS(C)(=O)=O)n2c(=O)n(-c3ccccc3)c3cc(Br)cnc32)ccc1OC` [WX044] has an IC50 of 26.6 nM.
`CCOc1cc([C@@H](CS(C)(=O)=O)n2c(=O)n(C3CC3)c3cc(Br)cnc32)ccc1OC` [WX045] gave an IC50 of 6.5 nM.
Work on `CCOc1cc([C@@H](CS(C)(=O)=O)n2c(=O)n(C3CC3)c3cc(-c4ccccc4F)cnc32)ccc1OC` [WX046] yielded an IC50 of 7.79 nM.
In the case of `CCOc1cc([C@@H](CS(C)(=O)=O)n2c(=O)n(CC(F)F)c3cc(Cl)cnc32)ccc1OC` [WX047], the IC50 is reported as 41.6 nM.
For `CCOc1cc([C@@H](CS(C)(=O)=O)n2c(=O)n(CC(F)(F)F)c3cc(Cl)cnc32)ccc1OC` [WX048], the IC50 was 19.8 nM.
For `CCOc1cc([C@@H](CS(C)(=O)=O)n2c(=O)n(CC(F)F)c3cc(F)cnc32)ccc1OC` [WX049], the IC50 was 90.7 nM.
`CCOc1cc([C@@H](CS(C)(=O)=O)n2c(=O)n(C)c3cc(Br)cnc32)ccc1OC` [WX050] was tested, and the IC50 was 11 nM.
`CCOc1cc([C@@H](CS(C)(=O)=O)n2c(=O)n(CCOC)c3cc(Br)cnc32)ccc1OC` [WX051] was tested, and the IC50 was 9.1 nM.
Compound `CCOc1cc([C@@H](CS(C)(=O)=O)n2c(=O)n(CCS(C)(=O)=O)c3cc(Br)cnc32)ccc1OC` [WX052] has an IC50 of 8.2 nM.
Work on `CCOc1cc([C@@H](CS(C)(=O)=O)n2c(=O)n(Cc3ccccc3F)c3cc(Br)cnc32)ccc1OC` [WX053] yielded an IC50 of 1.49 nM.
